# PubChem BioAssay AID1259407 (Chemical Carcinogenesis Research Information System (CCRIS), 2018)
# Calls of active or inactive are those of the source. No rule for the calls is given here.
# System: CCRIS mutagenicity, Ames/micronucleus/aberration tests
# Assay: CCRIS mutagenicity studies
# [1] = Test System: AMES SALMONELLA TYPHIMURIUM, Strain/Indicator: TA1535, Metabolic Activation: NONE, Method: PREINCUBATION
# [2] = Test System: AMES SALMONELLA TYPHIMURIUM, Strain/Indicator: TA98, Metabolic Activation: NONE, Method: PREINCUBATION
compound,measurement,setting,value
C=CCCl,mutagenic call,"End Point: IN VITRO CHROMOSOMAL ABERRATIONS, Test System: CHL CELLS, Metabolic Activation: RAT, LIVER, S-9, SODIUM PHENOBARBITAL AND 5,6-BENZOFLAVONE",active; positive (structural changes); authors report equivocal results for ploidy chang
same,mutagenic call,"Test System: AMES SALMONELLA TYPHIMURIUM, Strain/Indicator: TA100, Metabolic Activation: NONE, Method: DESICCATOR",active; positive
same,mutagenic call,"Test System: AMES SALMONELLA TYPHIMURIUM, Strain/Indicator: TA100, Metabolic Activation: NONE, Method: PREINCUBATION (20-180 MIN)",inactive; negative
same,mutagenic call,"Test System: AMES SALMONELLA TYPHIMURIUM, Strain/Indicator: TA100, Metabolic Activation: RAT, LIVER, S-9, AROCLOR 1254 (4 OR 12 MG/ML PROTEIN), Method: PREINCUBATION (20 OR 60 MIN)",inactive; negative
same,mutagenic call,"Test System: AMES SALMONELLA TYPHIMURIUM, Strain/Indicator: TA100, Metabolic Activation: RAT, LIVER, S-9, AROCLOR 1254 (4 OR 12 MG/ML PROTEIN), Method: PREINCUBATION (120 OR 180 MIN)",active; positive
same,mutagenic call,"Test System: AMES SALMONELLA TYPHIMURIUM, Strain/Indicator: TA100, Metabolic Activation: RAT, LIVER, S-9, AROCLOR 1254, SERUM ALBUMIN (4 MG/ML) (8 MG/ML PROTEIN), Method: PREINCUBATION (120 MIN)",inactive; negative
same,mutagenic call,"Test System: AMES SALMONELLA TYPHIMURIUM, Strain/Indicator: TA100, Metabolic Activation: RAT, LIVER, S-9, AROCLOR 1254, Method: DESICCATOR",active; positive
same,mutagenic call,"Test System: AMES SALMONELLA TYPHIMURIUM, Strain/Indicator: TA102, Metabolic Activation: S-9, Method: STANDARD PLATE",inactive; negative
same,mutagenic call,"Test System: AMES SALMONELLA TYPHIMURIUM, Strain/Indicator: TA1535, Metabolic Activation: NONE, Method: DESICCATOR",active; positive
same,mutagenic call,[1],active; positive
same,mutagenic call,"Test System: AMES SALMONELLA TYPHIMURIUM, Strain/Indicator: TA1535, Metabolic Activation: RAT, LIVER, S-9, AROCLOR 1254, Method: DESICCATOR",active; positive
same,mutagenic call,"Test System: AMES SALMONELLA TYPHIMURIUM, Strain/Indicator: TA1535, Metabolic Activation: RAT, LIVER, S-9, AROCLOR 1254, Method: PREINCUBATION",active; positive
same,mutagenic call,"Test System: AMES SALMONELLA TYPHIMURIUM, Strain/Indicator: TA2638, Metabolic Activation: S-9, Method: STANDARD PLATE",inactive; negative
same,mutagenic call,"Test System: Ames Salmonella typhimurium, Strain/Indicator: TA98, Metabolic Activation: Rat, Liver, S9, Sodium phenobarbital and 5,6-benzoflavone (10%), Method: Preincubation",inactive; negative
same,mutagenic call,"Test System: Ames Salmonella typhimurium, Strain/Indicator: TA100, Metabolic Activation: Rat, Liver, S9, Sodium phenobarbital and 5,6-benzoflavone (10%), Method: Preincubation",inactive; negative
same,mutagenic call,"Test System: Ames Salmonella typhimurium, Strain/Indicator: TA1537, Metabolic Activation: None, Method: Preincubation",inactive; negative
same,mutagenic call,"Test System: Ames Salmonella typhimurium, Strain/Indicator: TA1537, Metabolic Activation: Rat, Liver, S9, Sodium phenobarbital and 5,6-benzoflavone (10%), Method: Preincubation",inactive; negative
same,mutagenic call,"Test System: Ames Salmonella typhimurium, Strain/Indicator: YG7108, Metabolic Activation: None, Method: Standard plate",inactive; positive (negative when allyl chloride dissolved in water)
same,mutagenic call,"Test System: Ames Salmonella typhimurium, Strain/Indicator: YG7108, Metabolic Activation: Rat, Liver, S-9, Phenobarbital/beta-naphthoflavone, Method: Standard plate",active; positive
same,mutagenic call,"Test System: Ames Salmonella typhimurium, Strain/Indicator: YG7108pin3ERb5, Metabolic Activation: None, Method: Standard plate",active; positive
same,mutagenic call,"Test System: E. COLI, Strain/Indicator: WP2 (PKM101), Metabolic Activation: S-9, Method: STANDARD PLATE",inactive; negative
same,mutagenic call,"Test System: E. COLI, Strain/Indicator: WP2 UVRA (PKM101), Metabolic Activation: S-9, Method: STANDARD PLATE",inactive; negative
Nc1cc(N)c(-c2ccccc2)c([N+](=O)[O-])c1,mutagenic call,[2],active; positive
same,mutagenic call,"Test System: AMES SALMONELLA TYPHIMURIUM, Strain/Indicator: TA98, Metabolic Activation: RAT, LIVER, S-9, KANECHLOR 500, Method: PREINCUBATION",active; positive
CC(=O)NNc1ccccc1,mutagenic call,"Test System: AMES SALMONELLA TYPHIMURIUM, Strain/Indicator: TA97, Metabolic Activation: HAMSTER, LIVER, S-9, AROCLOR 1254 (5%), Method: PREINCUBATION",inactive; negative
same,mutagenic call,"Test System: AMES SALMONELLA TYPHIMURIUM, Strain/Indicator: TA97, Metabolic Activation: HAMSTER, LIVER, S-9, AROCLOR 1254 (10%), Method: PREINCUBATION",inactive; negative
same,mutagenic call,"Test System: AMES SALMONELLA TYPHIMURIUM, Strain/Indicator: TA97, Metabolic Activation: HAMSTER, LIVER, S-9, AROCLOR 1254 (30%), Method: PREINCUBATION",active; positive
same,mutagenic call,"Test System: AMES SALMONELLA TYPHIMURIUM, Strain/Indicator: TA97, Metabolic Activation: NONE, Method: PREINCUBATION",active; positive
same,mutagenic call,"Test System: AMES SALMONELLA TYPHIMURIUM, Strain/Indicator: TA97, Metabolic Activation: RAT, LIVER, S-9, AROCLOR 1254 (5, 10 OR 30%), Method: PREINCUBATION",inactive; negative
same,mutagenic call,"Test System: AMES SALMONELLA TYPHIMURIUM, Strain/Indicator: TA98, Metabolic Activation: HAMSTER, LIVER, S-9, AROCLOR 1254 (5, 10 OR 30%), Method: PREINCUBATION",inactive; negative
same,mutagenic call,[2],inactive; negative
same,mutagenic call,"Test System: AMES SALMONELLA TYPHIMURIUM, Strain/Indicator: TA98, Metabolic Activation: RAT, LIVER, S-9, AROCLOR 1254 (5, 10 OR 30%), Method: PREINCUBATION",inactive; negative
same,mutagenic call,"Test System: AMES SALMONELLA TYPHIMURIUM, Strain/Indicator: TA100, Metabolic Activation: HAMSTER, LIVER, S-9, AROCLOR 1254 (5%), Method: PREINCUBATION",inactive; negative
same,mutagenic call,"Test System: AMES SALMONELLA TYPHIMURIUM, Strain/Indicator: TA100, Metabolic Activation: HAMSTER, LIVER, S-9, AROCLOR 1254 (10%), Method: PREINCUBATION",inactive; negative
same,mutagenic call,"Test System: AMES SALMONELLA TYPHIMURIUM, Strain/Indicator: TA100, Metabolic Activation: HAMSTER, LIVER, S-9, AROCLOR 1254 (30%), Method: PREINCUBATION",inactive; negative
same,mutagenic call,"Test System: AMES SALMONELLA TYPHIMURIUM, Strain/Indicator: TA100, Metabolic Activation: NONE, Method: PREINCUBATION",inactive; negative
same,mutagenic call,"Test System: AMES SALMONELLA TYPHIMURIUM, Strain/Indicator: TA100, Metabolic Activation: RAT, LIVER, S-9, AROCLOR 1254 (5%), Method: PREINCUBATION",inactive; negative
same,mutagenic call,"Test System: AMES SALMONELLA TYPHIMURIUM, Strain/Indicator: TA100, Metabolic Activation: RAT, LIVER, S-9, AROCLOR 1254 (10%), Method: PREINCUBATION",inactive; negative
same,mutagenic call,"Test System: AMES SALMONELLA TYPHIMURIUM, Strain/Indicator: TA100, Metabolic Activation: RAT, LIVER, S-9, AROCLOR 1254 (30%), Method: PREINCUBATION",inactive; negative
same,mutagenic call,"Test System: AMES SALMONELLA TYPHIMURIUM, Strain/Indicator: TA1535, Metabolic Activation: HAMSTER, LIVER, S-9, AROCLOR 1254 (10%), Method: PREINCUBATION",inactive; negative
same,mutagenic call,"Test System: AMES SALMONELLA TYPHIMURIUM, Strain/Indicator: TA1535, Metabolic Activation: HAMSTER, LIVER, S-9, AROCLOR 1254 (30%), Method: PREINCUBATION",inactive; negative
same,mutagenic call,[1],active; positive
same,mutagenic call,"Test System: AMES SALMONELLA TYPHIMURIUM, Strain/Indicator: TA1535, Metabolic Activation: RAT, LIVER, S-9, AROCLOR 1254 (5%), Method: PREINCUBATION",inactive; negative
same,mutagenic call,"Test System: AMES SALMONELLA TYPHIMURIUM, Strain/Indicator: TA1535, Metabolic Activation: RAT, LIVER, S-9, AROCLOR 1254 (10%), Method: PREINCUBATION",inactive; negative
same,mutagenic call,"Test System: AMES SALMONELLA TYPHIMURIUM, Strain/Indicator: TA1535, Metabolic Activation: RAT, LIVER, S-9, AROCLOR 1254 (30%), Method: PREINCUBATION",inactive; negative
